Patent US20070189965A1, “Copper-complex isonitrile positron emission tomography (pet) imaging agent and method” (priority 2004, published 2007)

Experiments:
[1] = Stability of I-131 MIBG vials on storage: percent of iodine remaining bound; assay type: physicochemical
Protocol: In order to establish the advantages of the novel process and resulting composition, a series of tests were run utilizing meta iodo benzyl guanidine (MIBG) in which the radionuclide I-131 was the iodine in the MlBG.
The MIBG was prepared as follows: eight vials were prepared of MIBG in solution with a radioactive concentration of MIBG of 1 mCi per vial. The MIBG in six of those vials were then stabilized and lyophilized according to the process described in this invention. One vial was frozen and maintained at a temperature of −10 degrees, and another vial was simply refrigerated at approximately 5 degrees.
Six vials were prepared according to the process in this invention in order to enable several to be reconstituted from the lyophilized state and their activity tallied.
The radioactive concentration of MIBG per vial was 1 mCi per vial.
One each of the vials was reconstituted after 24, 48, 72 and 168 hours respectively.

[2] = Stability of I-131 Hippuran vials on storage: percent remaining bound; assay type: physicochemical
Protocol: As another example, I-131 Hippuran was prepared. The I-131 Hippuran was prepared as follows: 9 vials were prepared of I-131 Hippuran in solution with a radioactive concentration of MIBG of 1 mCi per vial. Each vial had 4 cc. The I-131 in seven of those vials was then stabilized and lyophilized according to the process described in this invention. One vial was frozen and maintained at a temperature of −10 degrees, and another vial was maintained room temperature. Room temperature was selected because Hippuran is thought to be stable at room temperature even in conjunction with a radioisotope. […]

[3] = Lyophilized and stabilized per invention, stored at room temp., 0 hours, 1 mCi per vial

In the case of `N=C(N)NCc1cccc([131I])c1` [MIBG, meta iodo benzyl guanidine], the “percent of iodine remaining bound to the MIBG” value ([1]; Frozen −10°, 0 hours) is reported as 96.3%, the “percent of iodine remaining bound to the MIBG” value ([1]; Frozen −10°, 24 hours) is reported as 94% and the “percent of iodine remaining bound to the MIBG” value ([1]; Frozen −10°, 48 hours) is reported as 91%. For the same molecule, the “percent of iodine remaining bound to the MIBG” value ([1]; Frozen −10°, 72 hours) was 84%, the “percent of iodine remaining bound to the MIBG” value ([1]; Frozen −10°, 168 hours (1 wk.)) was 72% and the “percent of iodine remaining bound to the MIBG” value [1, 3] was 96.3%. For the same molecule, the “percent of iodine remaining bound to the MIBG” value ([1]; Lyophilized and stabilized per invention, stored at room temp., 24 hours) was 97%, the “percent of iodine remaining bound to the MIBG” value ([1]; Lyophilized and stabilized per invention, stored at room temp., 48 hours) was 96.6% and the “percent of iodine remaining bound to the MIBG” value ([1]; Lyophilized and stabilized per invention, stored at room temp., 72 hours) was 96.2%. For the same molecule, the “percent of iodine remaining bound to the MIBG” value ([1]; Lyophilized and stabilized per invention, stored at room temp., 168 hours (1 wk.)) was 95.9%, the “percent of iodine remaining bound to the MIBG” value ([1]; Refrigerated ˜+5°, 0 hours) was 96.3% and the “percent of iodine remaining bound to the MIBG” value ([1]; Refrigerated ˜+5°, 24 hours) was 92%. For the same molecule, the “percent of iodine remaining bound to the MIBG” value ([1]; Refrigerated ˜+5°, 48 hours) was 85%, the “percent of iodine remaining bound to the MIBG” value ([1]; Refrigerated ˜+5°, 72 hours) was 77% and the “percent of iodine remaining bound to the MIBG” value ([1]; Refrigerated ˜+5°, 168 hours (1 wk.)) was 55%.

For `O=C(O)CNC(=O)c1ccccc1[131I]` [I-131 Hippuran], the “percent of Hippuran remaining bound to the 1-123” value ([2]; Frozen −10°, 0 hours) was 98%, the “percent of Hippuran remaining bound to the 1-123” value ([2]; Frozen −10°, 24 hrs) was 97.8% and the “percent of Hippuran remaining bound to the 1-123” value ([2]; Frozen −10°, 48 hrs) was 97%. The “percent of Hippuran remaining bound to the 1-123” value ([2]; Frozen −10°, 72 hrs) was 94%, the “percent of Hippuran remaining bound to the 1-123” value ([2]; Frozen −10°, 96 hrs) was 92.5% and the “percent of Hippuran remaining bound to the 1-123” value ([2]; Frozen −10°, 120 hrs) was 91. The “percent of Hippuran remaining bound to the 1-123” value [2, 3] was 98%, the “percent of Hippuran remaining bound to the 1-123” value ([2]; Lyophilized and stabilized per invention, stored at room temp., 24 hrs) was 98.4% and the “percent of Hippuran remaining bound to the 1-123” value ([2]; Lyophilized and stabilized per invention, stored at room temp., 48 hrs) was 98.6%. The “percent of Hippuran remaining bound to the 1-123” value ([2]; Lyophilized and stabilized per invention, stored at room temp., 72 hrs) was 98%, the “percent of Hippuran remaining bound to the 1-123” value ([2]; Lyophilized and stabilized per invention, stored at room temp., 96 hrs) was 98.4% and the “percent of Hippuran remaining bound to the 1-123” value ([2]; Lyophilized and stabilized per invention, stored at room temp., 120 hrs) was 98.5%. The “percent of Hippuran remaining bound to the 1-123” value ([2]; Room Temp. (solution), 0 hours) was 98%, the “percent of Hippuran remaining bound to the 1-123” value ([2]; Room Temp. (solution), 24 hrs) was 96% and the “percent of Hippuran remaining bound to the 1-123” value ([2]; Room Temp. (solution), 48 hrs) was 95%. The “percent of Hippuran remaining bound to the 1-123” value ([2]; Room Temp. (solution), 72 hrs) was 94.5%, the “percent of Hippuran remaining bound to the 1-123” value ([2]; Room Temp. (solution), 96 hrs) was 92% and the “percent of Hippuran remaining bound to the 1-123” value ([2]; Room Temp. (solution), 120 hrs) was 90%.
